Experimental data published in patent US8507498B2, “4, 6-disubstituted aminopyrimidine derivatives as inhibitors of protein kinases” (Ingenium Pharmaceuticals GmbH, priority 2007, dated 2013).
Entries after “also recorded” stand apart in the source; their conditions may differ.

Key:
U373-MAGI-CCR5E = assay: Growth assay using Alamar Blue; type: cell-based; settings: read-out: IC50 against cell line U373-MAGI-CCR5E
Description: (§1) Cells were seeded in 384-well plates (white, Greiner: 781080) at a density of […] cells per well in medium (RPMI+10% FCS).
(§2) Cells were incubated in 25 μl medium/well and were grown over night at 37° C., 6% CO2. On the following day compounds were added in DMSO in serial fold dilutions in fresh medium. Negative control wells were incubated without cells. Positive control wells were incubated with cells but without inhibitors (DMSO only). These wells served as data points to determine relative growth (given in % of the DMSO control [=100%]). The cell number was determined by addition of 5 μL Alamar Blue™ (Biosource DAL1100) to each well. Fluorescence was measures with an Analyst GT machine (Molecular Devices) at an excitation wavelength of 560 nm and an emission wavelength of 590 nm.
(§3) The following cell lines were used: A2780 (ECACC order number 93112519; human ovarian carcinoma; Semin Oncol (1984) 11:285; Cancer Res (1987) 47:414), B16F1 (ATCC order number CRL-6323; melanoma; Nat. New Biol. 242: 148-149, 1973); HCT116 (ATCC order number CCL-247; Colorectal carcinoma; Cancer Res (1981) 41:1751; Cancer (1995) 76:201), HT29 (ATTC order number HTB-38; colorectal adenocarcinoma; J. Biol. Chem. 271: 9490-9496, 1996) HepG2 (ATCC order number HB-8065; hepatocellular carcinoma; J. Biol. Chem. 271: 10073-10078, 1996), J774 (ATCC order number TIB-67; reticulum cell sarcoma; J. Biol. Chem. 271: 18431-18436, 1996); MCF7 (ATCC order number HTB-22; Breast carcinoma; J Natl Cancer Inst (1973) 51:1409; Cancer Res (1993) 53:5193), PM1 (obtainable from the National Institute of Allergy and Infectious Diseases; Division of AIDS via the NIH AIDS Research & Reference Reagent Program; Lusso P et al (1995), J Virol 69: 3712-3720) and U373-MAGI-CCR5 (obtainable from the National Institute of Allergy and Infectious Diseases; Division of AIDS via the NIH AIDS Research & Reference Reagent Program; Kensinger R D et al (2004), Antimicrob Agents Chemother 48: 1614-1623).
(§4) IC50s were calculated for each cell line based on serial dilutions.

HCT116 = assay: Growth assay using Alamar Blue; type: cell-based; settings: Homo sapiens, HCT-116, read-out: IC50 against cell line HCT116
Description: as §1, §2, §3, §4

CDK9/CycT1 = biological target: T1, CDK9/CycT1 (Homo sapiens, UniProt P50750); assay: General kinase assay (Example 80); type: biochemical; settings: ATP 1 μM
T1 construct: made in house; host or cells: HEK293 cells (ATCC CRL-1573), recombinant adenovirus
T1 sequence (P50750 whole entry, species assumed): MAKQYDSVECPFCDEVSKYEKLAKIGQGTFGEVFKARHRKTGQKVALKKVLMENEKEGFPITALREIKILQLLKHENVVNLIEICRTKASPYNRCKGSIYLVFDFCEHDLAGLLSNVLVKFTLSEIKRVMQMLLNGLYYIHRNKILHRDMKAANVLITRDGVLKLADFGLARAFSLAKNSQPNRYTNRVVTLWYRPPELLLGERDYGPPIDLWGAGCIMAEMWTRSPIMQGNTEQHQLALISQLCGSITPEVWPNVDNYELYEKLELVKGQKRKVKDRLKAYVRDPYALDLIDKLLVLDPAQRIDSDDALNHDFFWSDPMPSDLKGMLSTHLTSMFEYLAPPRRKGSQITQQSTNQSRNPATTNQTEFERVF
T1 sequence (O60563 whole entry partner, species assumed): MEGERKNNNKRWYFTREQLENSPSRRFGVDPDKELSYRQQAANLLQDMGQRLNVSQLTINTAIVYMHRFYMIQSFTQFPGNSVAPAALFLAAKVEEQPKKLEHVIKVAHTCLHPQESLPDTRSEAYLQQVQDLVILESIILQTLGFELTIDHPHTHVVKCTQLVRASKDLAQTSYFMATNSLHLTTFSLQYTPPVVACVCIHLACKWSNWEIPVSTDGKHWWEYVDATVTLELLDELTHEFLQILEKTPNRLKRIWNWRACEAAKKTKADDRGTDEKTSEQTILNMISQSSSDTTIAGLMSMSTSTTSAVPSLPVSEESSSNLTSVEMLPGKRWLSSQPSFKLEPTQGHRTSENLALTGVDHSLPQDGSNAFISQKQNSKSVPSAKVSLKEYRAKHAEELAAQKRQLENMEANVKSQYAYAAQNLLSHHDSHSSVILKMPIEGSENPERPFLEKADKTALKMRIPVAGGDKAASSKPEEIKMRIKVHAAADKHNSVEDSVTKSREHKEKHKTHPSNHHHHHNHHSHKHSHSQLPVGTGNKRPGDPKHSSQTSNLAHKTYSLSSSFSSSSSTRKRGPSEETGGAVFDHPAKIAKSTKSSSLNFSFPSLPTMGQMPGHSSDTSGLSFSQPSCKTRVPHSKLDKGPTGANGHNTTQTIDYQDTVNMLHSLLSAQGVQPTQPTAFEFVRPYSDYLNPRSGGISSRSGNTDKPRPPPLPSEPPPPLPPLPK
Description: Both cDNA fragments were cloned by PCR into pDONR201 vectors using the gateway recombination system (Invitrogen) according to the manufacturer's recommendations. The fragments were subcloned into a gateway-adapted shuttle vector (pPM7) for production of recombinant adenovirus. All plasmids were verified by restriction digests and sequencing analysis.
Expression and purification of CDK9/Cyclin T1 proteins was in principle performed as described by Cotten et al. (M. Cotten et al., Nucleic acids research, 2003, 31(28), 128).
Kinase assays using CDK9/Cyclin T1 were performed in principle as described by Cotten et al. (M. Cotten et al., Nucleic acids research, 2003, 31(28), 128).
(§5) IC50s were calculated for each kinase based on serial dilutions.

CDK2/CycA = biological target: T2, CDK2/CycA (Homo sapiens, UniProt P24941); assay: General kinase assay (Example 80); type: biochemical; settings: ATP 1 μM
T2 construct: purchased ProQinase (Freiburg, Germany)
Description: (§6) Kinase assays determining CDK2/CyclinA and CDK5/p35 activity were performed as described by the manufacturer's recommendations (ProQinase (Freiburg, Germany) for CDK2/CyclinA and Upstate for CDK5/p35).
(§7) The inhibitory effect of compounds according to the present invention on the activity of protein kinases can be measured according to the following protocol: • Reaction Volume: 40 μl • Reaction Time: 60 min • Reaction Temperature: room temperature • Assay Plate: 96 well U bottom plate (Greiner, 650161) • MultiScreen-PH Plate: 96 well MAPH Filter Plates (Millipore, MAPHNOB50) • Filter Washing Solution: 0.75% H3PO4 • Scintillation Liquid Supermix Liquid Scintillator (PerkinElmer, 1200-439) Controls: • Negative Control (C−): 100 mM EDTA (Ethylenediaminetetraacetic acid), no Inhibitor • Positive Control (C+): no Inhibitor Reaction Buffer: • 20 mM Tris (Tris(hydroxymethyl)aminomethane hydrochloride), pH 7.5 • 10 mM MgCl2 • 1 mM DTT Final Assay Concentrations: • Kinase: Use kinase conc. yielding 10% ATP turn over. • ATP: 1 μM • Adenosine 5′-[-^33P]triphosphate:12.5 μCi/ml (Amersham Biosciences, BF1000) • Substrate: Myelin Basic Protein 10 μM (Invitrogen, 13228-010) Pipetting Sequence: • 1) Add 10 μl 4 fold concentrated Substrate+4 fold concentrated ATP in […] concentrated Reaction Buffer to each well of Assay Plate • 2) Add 10 μl 4 fold concentrated inhibitor in 4% DMSO in H2O to each well except to C− and C+wells • 3) Add 10 μl 4% DMSO in H2O to C− and C+wells • 4) Add 10 μl 500 mM EDTA in H2O to C− wells • 5) Add 10 μl 50 μCi/ml Adenosine 5′-[-^33P]triphosphate in H2O to each well • 6) Add 10 μl 4 fold concentrated kinase in Reaction Buffer to each well • 7) Incubate 1 hr at room temperature • 8) Add 10 μl 50 mM EDTA in H2O to each well except to C− wells • 9) Prepare MAPH plates by adding 200 μl 0.75% H3PO4 to each well • 10) Exhaust 0.75% H3PO4 using Millipore vacuum station • 11) Add 60 μl 0.75% H3PO4 to each well of MAPH Filter Plate • 12) Transfer 30 μl sample per well from Assay Plate to corresponding well of MAPH Filter Plate • 13) Incubate 30 min at room temperature • 14) Wash each well of MAPH Filter Plates 3× with 200 μl 0.75% H3PO4 using Millipore vacuum station. • 15) Add 20 μl Scintillation Liquid to each well of MAPH Filter Plate • 16) Seal MAPH Filter Plate • 17) Store MAPH Filter Plate 30 min in darkness • 18) Quantify radioactivity Results:
as §5

CDK5/p35 = biological target: T3, CDK5/p35 (Homo sapiens, UniProt Q00535); assay: General kinase assay (Example 80); type: biochemical; settings: ATP 1 μM
T3 construct: purchased Upstate
T3 sequence (Q00535 whole entry): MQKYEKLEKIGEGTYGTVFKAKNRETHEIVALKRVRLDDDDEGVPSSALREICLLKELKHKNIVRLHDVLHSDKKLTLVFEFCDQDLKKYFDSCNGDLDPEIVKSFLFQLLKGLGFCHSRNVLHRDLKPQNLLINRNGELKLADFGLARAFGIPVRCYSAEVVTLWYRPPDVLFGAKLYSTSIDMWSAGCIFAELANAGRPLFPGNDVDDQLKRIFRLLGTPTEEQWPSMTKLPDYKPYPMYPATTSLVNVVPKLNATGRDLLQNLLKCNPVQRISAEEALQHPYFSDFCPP
T3 sequence (Q15078 whole entry partner): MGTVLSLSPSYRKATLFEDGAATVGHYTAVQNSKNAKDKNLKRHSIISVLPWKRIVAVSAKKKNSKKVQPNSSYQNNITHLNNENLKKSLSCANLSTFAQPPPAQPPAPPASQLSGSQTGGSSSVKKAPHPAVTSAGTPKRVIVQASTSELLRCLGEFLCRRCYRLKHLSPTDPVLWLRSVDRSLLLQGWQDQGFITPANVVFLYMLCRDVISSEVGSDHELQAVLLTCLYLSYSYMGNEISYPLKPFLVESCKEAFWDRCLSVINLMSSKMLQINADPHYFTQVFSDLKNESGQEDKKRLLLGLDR
Description: as §6, §7, §5

CDK1/CycB = CDK1/CycB (Homo sapiens, UniProt P06493); assay: General kinase assay (Example 80); type: biochemical; settings: ATP 1 μM
Chain of CDK1/CycB (P06493 whole entry, species assumed): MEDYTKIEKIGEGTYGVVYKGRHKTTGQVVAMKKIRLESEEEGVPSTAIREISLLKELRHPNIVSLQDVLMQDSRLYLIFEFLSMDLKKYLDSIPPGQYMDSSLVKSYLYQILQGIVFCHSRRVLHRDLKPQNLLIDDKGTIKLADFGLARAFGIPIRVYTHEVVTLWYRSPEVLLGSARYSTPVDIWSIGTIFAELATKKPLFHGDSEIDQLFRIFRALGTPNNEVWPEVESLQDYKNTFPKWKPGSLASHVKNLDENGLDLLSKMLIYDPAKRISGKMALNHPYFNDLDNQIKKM
Chain of CDK1/CycB (P14635 whole entry partner, species assumed): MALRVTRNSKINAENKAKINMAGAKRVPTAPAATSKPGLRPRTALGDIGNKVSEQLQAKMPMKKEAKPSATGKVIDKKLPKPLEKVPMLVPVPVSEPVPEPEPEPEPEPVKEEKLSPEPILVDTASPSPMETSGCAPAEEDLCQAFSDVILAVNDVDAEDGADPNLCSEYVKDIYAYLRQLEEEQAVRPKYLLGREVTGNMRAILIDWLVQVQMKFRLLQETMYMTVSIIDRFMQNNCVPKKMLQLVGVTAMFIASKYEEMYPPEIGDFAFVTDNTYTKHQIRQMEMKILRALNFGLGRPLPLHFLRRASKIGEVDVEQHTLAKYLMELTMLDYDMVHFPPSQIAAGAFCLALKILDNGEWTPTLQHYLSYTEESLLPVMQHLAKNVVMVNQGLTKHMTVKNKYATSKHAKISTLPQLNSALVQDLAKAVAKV
Description: as §7, §5

[1] = test system: SNI mice (mechanical allodynia); assay: Spared nerve injury (SNI) model, von Frey assay; type: in vivo; settings: 30 mg/kg per os 30 min prior to measurement, day 107 post SNI, vs vehicle
Description: Wildtype mice (strain C3HeB/FeJ) (age, sex and weight matched) were anesthetized with Hypnorm (0.315 mg/ml fentanyl citrate+10 mg/ml fluanisone; Janssen)/Hypnovel (5 mg/ml midazolam; Roche Applied Sciences)/water at a ratio of 1:1:2 at 4 μl/g prior to surgical preparation.
Subsequently, an incision was made under aseptic precautions in the ipsi-lateral right hind leg of all mice just above the level of the knee, exposing the three terminal branches of the sciatic nerve: the common peroneal, tibial, and sural nerves. The common peroneal and tibial nerves were ligated tightly with 7/0 silk and sectioned distal to the ligation removing ≈2 mm of distal nerve stump. The sural branch remained untouched during the procedure (denoted herein “SNI ipsi”). The overlying muscle and skin was sutured, and the animals were allowed to recover and to permit wound healing. […]
Injection of inhibitor or vehicle, and subsequent measurements of paw withdrawal threshold to mechanical stimulation in von Frey assays were performed at day 107 post SNI. Reflex nociceptive responses to mechanical stimulation were measured in a von Frey assay 30 min after each injection. […]
Mechanical thresholds of SNI mice were quantified using the up-down method based on Chaplan et al. (1994) and Malmberg and Basbaum (1998). […]

HepG2 = assay: Growth assay using Alamar Blue; type: cell-based; settings: Homo sapiens, read-out: IC50 against cell line HepG2
Description: as §1, §2, §3, §4

PM1 = assay: Growth assay using Alamar Blue; type: cell-based; settings: read-out: IC50 against cell line PM1
Description: as §1, §2, §3, §4

CDK6/CycD3 = CDK6/CycD3 (Homo sapiens, UniProt Q00534); assay: General kinase assay (Example 80); type: biochemical; settings: ATP 1 μM
Chain of CDK6/CycD3 (Q00534 whole entry, species assumed): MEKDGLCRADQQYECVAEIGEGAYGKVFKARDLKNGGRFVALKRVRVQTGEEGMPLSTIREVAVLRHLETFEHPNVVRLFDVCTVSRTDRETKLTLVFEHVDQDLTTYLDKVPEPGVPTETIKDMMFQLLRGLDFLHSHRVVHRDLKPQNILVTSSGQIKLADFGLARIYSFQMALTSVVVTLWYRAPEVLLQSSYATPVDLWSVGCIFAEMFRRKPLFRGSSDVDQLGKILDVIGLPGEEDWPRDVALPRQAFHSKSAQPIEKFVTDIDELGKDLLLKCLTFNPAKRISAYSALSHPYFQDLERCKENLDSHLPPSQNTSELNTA
Chain of CDK6/CycD3 (P30281 whole entry partner, species assumed): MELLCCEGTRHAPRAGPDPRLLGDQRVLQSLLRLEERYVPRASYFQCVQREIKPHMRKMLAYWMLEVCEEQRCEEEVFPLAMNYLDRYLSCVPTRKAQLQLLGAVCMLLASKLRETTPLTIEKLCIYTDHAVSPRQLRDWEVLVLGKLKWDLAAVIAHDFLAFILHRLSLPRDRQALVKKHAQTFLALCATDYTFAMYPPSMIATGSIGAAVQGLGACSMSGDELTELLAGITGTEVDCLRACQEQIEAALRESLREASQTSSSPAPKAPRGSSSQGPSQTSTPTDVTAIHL
Description: as §7, §5

CDK4/CycD1 = CDK4/CycD1 (Homo sapiens, UniProt P11802); assay: General kinase assay (Example 80); type: biochemical; settings: ATP 1 μM
Chain of CDK4/CycD1 (P11802 whole entry, species assumed): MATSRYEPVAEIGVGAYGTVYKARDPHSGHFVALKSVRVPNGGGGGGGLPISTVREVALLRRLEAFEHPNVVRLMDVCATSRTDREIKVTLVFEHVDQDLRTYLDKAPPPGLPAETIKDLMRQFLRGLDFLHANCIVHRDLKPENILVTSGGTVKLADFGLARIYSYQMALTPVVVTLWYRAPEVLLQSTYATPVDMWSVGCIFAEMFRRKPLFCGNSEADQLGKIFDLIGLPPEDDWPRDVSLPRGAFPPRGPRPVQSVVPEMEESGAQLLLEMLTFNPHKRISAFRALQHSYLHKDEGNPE
Chain of CDK4/CycD1 (P24385 whole entry partner, species assumed): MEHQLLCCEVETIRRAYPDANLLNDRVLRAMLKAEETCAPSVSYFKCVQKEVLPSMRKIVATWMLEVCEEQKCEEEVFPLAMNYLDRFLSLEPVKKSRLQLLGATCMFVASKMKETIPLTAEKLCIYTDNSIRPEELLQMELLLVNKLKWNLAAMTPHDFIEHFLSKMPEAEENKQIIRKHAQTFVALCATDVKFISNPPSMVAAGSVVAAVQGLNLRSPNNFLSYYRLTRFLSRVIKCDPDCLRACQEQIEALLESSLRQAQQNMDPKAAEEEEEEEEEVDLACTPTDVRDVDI
Description: as §7, §5

Row | IC50 (HCT116) [µM] | IC50 (CDK9/CycT1) [µM] | IC50 (CDK2/CycA) [µM] | IC50 (CDK5/p35) [µM] | IC50 (CDK1/CycB) [µM] | IC50 (HepG2) [µM] | IC50 (CDK6/CycD3) [µM] | IC50 (CDK4/CycD1) [µM] | Structure (SMILES) | IC50 (U373-MAGI-CCR5E) [µM] | melting point [°C] | paw withdrawal threshold to mechanical stimulation (von Frey), mechanical allodynia [1] | IC50 (PM1) [µM]
1 |  |  |  |  |  |  |  |  | CCOc1ccccc1-c1cc(Nc2cccc(CS(=O)(=O)NC)c2)ncn1 [Compound 43, C-{3-[6-(2-Ethoxy-phenyl)-pyrimidin-4-ylamino]-phenyl}-N-methyl-methanesulfonamide] |  |  | hypoalgesic effect; also recorded: significant increase of threshold values | 
2 | < 2 | < 0.1 | < 2 | < 5 | < 5 | > 10 | < 10 | < 10 | CNS(=O)(=O)Cc1cccc(Nc2cc(-c3ccccc3OC)ncn2)c1 [Compound 49, C-{3-[6-(2-methoxy-phenyl)-pyrimidin-4-ylamino]-phenyl}-N-methyl-methanesulfonamide] |  |  |  | < 5
3 | < 5 | < 0.5 | < 10 | < 10 | < 10 |  |  | > 10 | COCCNS(=O)(=O)Cc1cccc(Nc2cc(-c3ccccc3OC)ncn2)c1 [Compound 86, N-(2-methoxy-ethyl)-C-{3-[6-(2-methoxy-phenyl)-pyrimidin-4-ylamino]-phenyl}-methanesulfonamide] |  |  |  | 

Row | Structure (SMILES) | IC50 (HCT116) [µM] | IC50 (CDK9/CycT1) [µM] | IC50 (CDK2/CycA) [µM] | IC50 (CDK5/p35) [µM] | IC50 (CDK1/CycB) [µM] | IC50 (HepG2) [µM] | IC50 (CDK6/CycD3) [µM] | IC50 (CDK4/CycD1) [µM] | IC50 (U373-MAGI-CCR5E) [µM] | melting point [°C] | paw withdrawal threshold to mechanical stimulation (von Frey), mechanical allodynia [1] | IC50 (PM1) [µM]
4 | COc1ccccc1-c1cc(Nc2cccc(CS(=O)(=O)N(C)C)c2)ncn1 [Compound 20, C-{3-[6-(2-methoxy-phenyl)-pyrimidin-4-ylamino]-phenyl}-N,N-dimethyl-methanesulfonamide] | < 5 | < 0.5 | < 2 | < 5 | < 5 |  |  |  | < 10 | 187.5 to 188.8 |  | 
